Measured values taken from ChEMBL document CHEMBL5512692, “Colloidal Aggregation Confounds Cell-Based Covid-19 Antiviral Screens” (J Med Chem, 2024).

Tested on: SARS-CoV-2
Experiment: Antiviral activity against SARS-CoV-2 pseudotyped lentivirus infected in HEK293 cells overexpressing EGFP-fused hACE2 coexpressing mCherry assessed as reduction in virus entry incubated for 40 mins by immunocytochemistry assay
Format: functional, organism-based
Conditions: Severe acute respiratory syndrome coronavirus 2, HEK293, 40 min

SMILES | EC50 [µM]
C=C[C@@](C)(/C=C/c1ccc(O)cc1)CCC=C(C)C [BAKUCHIOL] | 110
CC(C)=CCc1c(O)ccc(C(=O)/C=C/c2ccc(O)cc2)c1O [ISOBAVACHALCONE] | 51.5
